According to patent US20240424107A1, “PREPARATION OF SITE-SPECIFIC POLYPEPTIDE CONJUGATES” (POSTECH RESEARCH AND BUSINESS DEVELOPMENT FOUNDATION, priority 2023, published 2024):

Target: T1, Human-alpha thrombin (Homo sapiens, UniProt P00734)
T1 construct: Human-alpha thrombin and its well-known aptamers, HD1
Assay: Covalent conjugation of oxanine-containing aptamer to thrombin, conversion rate over time (SDS-PAGE/electrophoresis)
Format: biochemical
Conditions: thrombin 1.25 μM, HEPES pH 8.4, 37° C., FIG. 3
Protocol: Human-alpha thrombin and its well-known aptamers, HD1 (15-mer length of aptamer that binds to exosite I of thrombin; 5′-[…]-3′; SEQ ID NO: 1) and HD2 (29-mer length of aptamer that binds to exosite II of thrombin; 5′-[…]-3′; SEQ ID NO: 2) were used. Each aptamer labeled with fluorescent dye at 5′-terminus and 10 dOTPs at 3′-terminus was prepared (See Example 1-1) and mixed with thrombin. Specifically, thrombin (1.25 μM), NaCl (100 mM), MgCl2 (5 mM), KCl (5 mM), Tween-20 (0.01% v/v), and oxanine-inserted HD1 (1 equiv. relative to thrombin) and HD2 (2 equiv. relative to thrombin) in HEPES (50 mM pH 8.4) were mixed at 37° C. for 1 day.
Whether the aptamer brings oxanine close to the amine group of the target protein, enabling proximity-enhanced covalent bond formation, was monitored with SDS-PAGE (protein bands) and electrophoresis (DNA bands). As a comparison group, aptamers HD1 and HD2 without oxanine introduced, or random DNA (not aptamer) with oxanine introduced, were used, and an untreated control group without any treatment with thrombin was also used for comparison.

Substance | time to reach 50% modification rate (conversion of aptamer to aptamer-thrombin conjugate) [h]
HD22: 29-mer thrombin exosite II aptamer 5′-AGTCCGTGGTAGGGCAGGTTGGGGTGACT-3′ with fluorescent dye at 5′-terminus and 10 dOTPs (oxanine) at 3′-terminus (DNA, backbone not given here; 5' fluorescent dye, 3' tail of ten oxanine deoxynucleotides) | ≤ 1.68
HD1: 15-mer thrombin exosite I aptamer 5′-GGTTGGTGTGGTTGG-3′ with fluorescent dye at 5′-terminus and 10 dOTPs (oxanine) at 3′-terminus (DNA, backbone not given here; 5' fluorescent dye, 3' tail of ten oxanine deoxynucleotides) | ≤ 0.21
